Two compounds from PMC5786306, “An AKAP-Lbc-RhoA interaction inhibitor promotes the translocation of aquaporin-2 to the plasma membrane of renal collecting duct principal cells” (PLoS ONE, 2018) can be followed below.

“Also recorded” adds a separate entry of the source.

Test [1] concerns AKAP-Lbc-mediated activation of RhoA in HEK293 cells. Nature of the test: SRE luciferase reporter assay, AKAP-Lbc expressed. The test is classed as cell-based, human. The note with it: Scaff10. The method, then:
Luciferase reporter gene assays were performed with the Dual Luciferase Reporter Assay System (Promega) according to manufactures protocol and as previously reported. In brief, HEK293 cells were seeded and co-transfected with the indicated plasmids together with pSRE.L reporter plasmid encoding firefly luciferase (kindly provided from Dr J. Mao and Dr. D. Wu, Rochester, NY) and pRL-TK control vector (Promega, Mannheim, Germany) encoding renilla luciferase. The transfected cells were further cultured in DMEM with 0.5% FCS for 24 h, lysed with passive lysis buffer (Promega). Luciferase activities was measured an Envision Instrument (Perkin Elmer, Rodgau, Germany) in white 96-well plates. […] In Western blots, the protein was detected with primary polyclonal antibody (rabbit; Gramsch, 1:1000). […] AKAP-Lbc was detected with a specific anti-AKAP-Lbc antibody (Abcam; #ab99377; 1:1000). […]
Fig 7 Scaff10-8 inhibits the AKAP-Lbc-mediated activation of RhoA in cells. […] Statistically significant differences were determined applying one-way ANOVA with posthoc Bonferroni. […]
in luciferase activity induced by other GEFs. n=3; statistically significant differences were not found, as confirmed by statistical analysis using ANOVA. […] The fraction of active RhoA was determined using Rhotekin pulldown assays as described. […]
Background: A reporter such as luciferase makes a cellular process visible.

A further test has as its target His6-GST fusion protein (Schistosoma japonicum, UniProt P08515). Nature of the test: HTRF control assay with His6-GST fusion protein. The settings on record: control for interference with tags or antibodies. The test is classed as binding. The method, then: The assay was essentially carried out as described. Scaff10 derivatives were added to His6-AKAP-Lbc/DHPH protein (250 nM final concentration) in HTRF buffer (PBS; 4 mM MgCl2; 0.05% Tween 20) in 384 well plates (Proxiplate-384 Plus, white, #6008289; Perkin Elmer LAS, Rodgau, Germany). Concentrations of Scaff10 derivatives ranged between 1.56–200 μM (2% DMSO final concentration); HTRF buffer with 2% DMSO served as a control. GST-RhoA (30 nM final concentration) in HTRF buffer and anti-GST antibody coupled to terbium (donor) and anti-His6-tag antibody coupled to XL665 (acceptor) were added to all wells (final antibody concentration: 2 μg/ml). After 1 h incubation at room temperature in the dark, FRET signals were recorded at 620 and 665 nm using a Genios Pro plate reader (Tecan Austria GmbH, Grödig, AT) and the ratios of […] to 620 nm were calculated. Wells containing no compound were set to 100% interaction of AKAP-Lbc/DHPH with RhoA, wells containing GST-RhoA only (without His6-AKAP-Lbc/DHPH) were set to 0% interaction. To exclude any interference of the tags and/or antibodies with Scaff10 derivatives, a His6-GST fusion protein replaced the two tagged proteins in a control assay. Wells containing His6-GST fusion protein were set to 100% interaction of His6-GST, wells containing no fusion protein were set to 0% interaction.
In general terms: Time-resolved FRET reads energy transfer from a long-lived donor to a nearby acceptor.

Sequence of His6-GST fusion protein (P08515 whole entry, the tested form may be a part): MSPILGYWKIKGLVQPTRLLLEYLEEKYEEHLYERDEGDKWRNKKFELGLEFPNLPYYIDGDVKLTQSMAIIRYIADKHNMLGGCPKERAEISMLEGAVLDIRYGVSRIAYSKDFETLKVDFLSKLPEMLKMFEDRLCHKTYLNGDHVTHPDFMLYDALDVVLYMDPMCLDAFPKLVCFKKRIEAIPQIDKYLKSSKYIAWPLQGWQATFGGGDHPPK

Take `COc1ccc(-c2coc3cc4oc(=O)c(C)c(C)c4cc23)cc1` [Scaff10, 3-(4-Methoxyphenyl)-5,6-dimethyl-furo[3,2-g]chromen-7-one]: the “AKAP-Lbc-mediated activation of RhoA (SRE luciferase activity)” value in test [1] is reported as “selectively inhibited; also recorded: concentration-dependently inhibits”.

Take `COc1ccc(-c2coc3cc4oc(=O)c(CCC(=O)O)c(C)c4cc23)cc1` [Scaff10-8, 3-[3-(4-Methoxyphenyl)-5-methyl-7-oxo-furo[3,2-g]chromen-6-yl] propanoic acid]: the “interaction with His-GST fusion protein” value on His6-GST fusion protein is “does not interact”.
